Data as given in ChEMBL document CHEMBL1201862, “PubChem BioAssay data set” (2004).
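Briefly, cells in 96-well plates were exposed to five compound concentrations for 48 h, and endpoints were estimated by linear interpolation. The concentration for 50% growth inhibition is given as GI50.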 The source made the active and inactive calls. Cut-off read from the data, not from the text of the source: active = GI50 up to about 1.1 µM and inactive = higher.

What was measured:
Experiment in all cases: NCI tumour cell line growth inhibition, 48 h
A498 = tested on: A498
A549 = tested on: A549
CAKI-1 = tested on: CAKI-1
EKVX = tested on: EKVX
HCC 2998 = tested on: HCC 2998
HCT-116 = tested on: HCT-116
HL-60 = tested on: HL-60
IGROV-1 = tested on: IGROV-1
MOLT-4 = tested on: MOLT-4
Malme-3M = tested on: Malme-3M
NCI-H23 = tested on: NCI-H23
NCI-H460 = tested on: NCI-H460
OVCAR-5 = tested on: OVCAR-5
SF-539 = tested on: SF-539
UACC-257 = tested on: UACC-257
UACC-62 = tested on: UACC-62
ACHN = tested on: ACHN

Measured: GI50

O=C1c2c(c(-c3ccccc3)c(-c3ccccc3)c(-c3ccccc3)c2-c2ccccc2)C(=O)N1c1cccc(Br)c1
inactive: A498 > 100 µM | A549 > 100 µM | CAKI-1 > 100 µM | EKVX > 100 µM | HCC 2998 > 100 µM | HCT-116 > 100 µM | HL-60 > 100 µM | IGROV-1 > 100 µM | MOLT-4 > 100 µM | Malme-3M > 100 µM | NCI-H23 > 100 µM | NCI-H460 > 100 µM | OVCAR-5 > 100 µM | SF-539 > 100 µM | UACC-257 > 100 µM | UACC-62 > 100 µM

CC(=O)Nc1ccc(-c2nnc(SCC(=O)Nc3ccc(Cl)cc3)o2)cc1
inactive: A498 14.8 µM | A549 16.8 µM | ACHN 12.7 µM | CAKI-1 18 µM | EKVX 21 µM | HCC 2998 17 µM | HCT-116 7.74 µM | HL-60 16.3 µM | IGROV-1 12.2 µM | MOLT-4 11.2 µM | Malme-3M 13.6 µM | NCI-H23 3.39 µM | NCI-H460 10 µM | OVCAR-5 16.4 µM | SF-539 16 µM | UACC-257 16.4 µM | UACC-62 4.89 µM

CC(=O)O[C@H]1CC[C@@]2(C)C(=CC[C@@H]3C2CC[C@]2(C)Nc4nc5ccccc5cc4CC32)C1 (stereo partly specified)
inactive: A498 5.47 µM | A549 3.34 µM | ACHN 4.72 µM | CAKI-1 4.28 µM | EKVX 5.74 µM | HCC 2998 2.98 µM | HCT-116 1.86 µM | HL-60 4.32 µM | IGROV-1 11.7 µM | MOLT-4 3.3 µM | Malme-3M 6.55 µM | NCI-H23 12.4 µM | NCI-H460 4.57 µM | OVCAR-5 13.9 µM | SF-539 3.78 µM | UACC-257 3.66 µM | UACC-62 10.8 µM

COc1cc(OC)c2c(c1)C(=O)C(CC(C)O)=CC2=O (stereo unspecified)
inactive: A498 17.8 µM | A549 22.3 µM | ACHN 16.6 µM | CAKI-1 20.1 µM | EKVX 12 µM | HCC 2998 28.6 µM | HCT-116 12.5 µM | HL-60 5.47 µM | IGROV-1 18.2 µM | MOLT-4 3.89 µM | Malme-3M 22.7 µM | NCI-H23 19.7 µM | NCI-H460 23.6 µM | OVCAR-5 18.4 µM | SF-539 18.4 µM | UACC-257 16.6 µM | UACC-62 11.8 µM

CCOc1ccccc1NC(=O)C(=O)c1c(O)c2ccc(O)cc2oc1=O
inactive: A498 > 100 µM | A549 > 100 µM | ACHN > 100 µM | CAKI-1 > 100 µM | EKVX > 100 µM | HCC 2998 > 100 µM | HCT-116 > 100 µM | HL-60 > 100 µM | IGROV-1 > 100 µM | MOLT-4 > 100 µM | Malme-3M > 100 µM | NCI-H23 > 100 µM | NCI-H460 > 100 µM | OVCAR-5 > 100 µM | SF-539 > 100 µM | UACC-257 > 100 µM | UACC-62 > 100 µM

CC(=O)N1c2ccccc2N(C(C)=O)C1c1ccc(C2N(C(C)=O)c3ccccc3N2C(C)=O)[nH]1
inactive: A498 > 100 µM | A549 > 100 µM | CAKI-1 > 100 µM | EKVX > 100 µM | HCC 2998 > 100 µM | HCT-116 > 100 µM | HL-60 > 100 µM | IGROV-1 > 100 µM | MOLT-4 > 100 µM | Malme-3M > 100 µM | NCI-H23 > 100 µM | NCI-H460 > 100 µM | OVCAR-5 > 100 µM | SF-539 > 100 µM | UACC-257 > 100 µM | UACC-62 > 100 µM

Clc1ccc(OCc2nnc3n2N=C(c2ccc(Br)cc2)CS3)cc1
inactive: A498 5.36 µM | A549 25.5 µM | ACHN 23.2 µM | CAKI-1 > 10 µM | HCC 2998 84.5 µM | HCT-116 22.6 µM | HL-60 > 100 µM | MOLT-4 > 100 µM | Malme-3M 28 µM | NCI-H23 40.9 µM | NCI-H460 17.7 µM | OVCAR-5 > 100 µM | SF-539 8.43 µM | UACC-257 23.1 µM | UACC-62 27.1 µM

C/C(=C\c1ccccc1)C(O)S(=O)(=O)O (stereo unspecified)
inactive: A498 > 100 µM | A549 > 100 µM | ACHN > 100 µM | CAKI-1 > 100 µM | EKVX > 100 µM | HCC 2998 > 100 µM | HCT-116 > 100 µM | HL-60 > 100 µM | IGROV-1 > 100 µM | MOLT-4 > 100 µM | Malme-3M > 100 µM | NCI-H23 > 100 µM | NCI-H460 > 100 µM | OVCAR-5 > 100 µM | UACC-257 > 100 µM | UACC-62 > 100 µM

C=CCO[C@H]1CC[C@@]2(C)C(CC[C@]3(C)C2CC=C2[C@@H]4[C@@H](C)C(C)CC[C@]4(C(=O)O)CCC23C)C1(C)C (stereo partly specified)
inactive: A498 17.3 µM | A549 16.4 µM | ACHN 15.4 µM | CAKI-1 17.9 µM | EKVX 21.2 µM | HCC 2998 17.1 µM | HCT-116 12.7 µM | HL-60 7.01 µM | IGROV-1 16.6 µM | Malme-3M 19.5 µM | NCI-H23 14.9 µM | NCI-H460 17.5 µM | SF-539 17 µM | UACC-257 16.9 µM | UACC-62 14.4 µM
